Results reported in patent EP0273199A2, “Uses of 3,4-diphenyl piperidine derivatives or medicines, 3,4-diphenyl piperidine derivatives, and process for their preparation” (LABORATOIRES HOECHST S.A., priority 1986, dated 1988).
Values joined by “and” are separate entries in the source; they are usually repeats but may differ in a detail not shown here. Equal entries are not always repeated. Structures can show the parent of a compound that is named as a salt. Where two headings read alike, the source gives them in different places.

Tests used:
[1] = tested on: Maus; test: Behavioural despair test (Porsolt forced swimming); format: in vivo; conditions: mouse; for Dauer der Unbeweglichkeit: 30 min before test
Source text: Test auf verzweifeltes Verhalten, wie von Porsolt u.a. (Arch. Int, Pharmacodyn. Ther. 229, 327 - 336, 1977) beschrieben.
Die Verbindungen werden intraperetoneal 30 Minuten vor dem Test verabreicht, und die Tiere werden vor dem erzwungenen Schwimmtest isoliert gehalten. Man bewertet die Dauer der Unbeweglichkeitsperioden in Sekunden ausgedrückt, die von der 2. bis zur 6. Minute nach dem Einsetzen des Tieres in Wasser gezählt werden.

[2] = tested on: Maus; test: Hot plate test (licking and jumping), analgesia; format: in vivo
Procedure: Heizplattentest: Lecken und Springen, wie von Jacob und Blozovski beschrieben (Arch. Int. Pharmacodyn. 133, 296-209, 1961).
Die in Sekunden ausgedrückten Reaktionszeiten auf einer Heizplatte werden unter Berücksichtigung des Leckens der Vorderpfoten und Springen des Tieres als Kriterien bewertet. Die beiden Reaktionen werden am selben, anfänglich untrainierten Tier mit einer maximalen Ansprechzeit (Obergrenze) von 240 Sekunden beobachtet. Die Temperatur der Platte wird auf 56,6°C gehalten.
Morphin als positive Kontrolle wird subkutan und die übrigen Substanzen (mg/kg) werden intraperitoneal 30 Minuten vor dem Test verabreicht. Positives Ansprechen zeigt sich in einer Zunahme der Reaktionszeit.
Wird der schadensverhütenden Wirkung eine Substanz durch Naloxon entegengewirkt, so kann man schließen, daß die Substanz tatsächlich eine analgetische Wirkung besitzt.

[3] = tested on: Maus; test: Tail suspension test; format: in vivo; conditions: for minimal effective dose: ip; for % Antagonismus / Dauer der Unbeweglichkeit: mouse
Source text: Schwanzaufhängungstest an der Maus wie von Stéru u.a. beschrieben (Psychopharmacology 85, 367-370, 1985).
Die Substanzen werden intraperitoneal 30 Minuten vor dem Test verabreicht und die Tiese isoliert (10 Mäuse pro Dosis).
Man bewertet die Dauer der Unbeweglichkeit, ausgedrückt in Sekunden über die 6 Minuten des Tests. Man untersucht auf eine Verkürzung dieser Unbeweglichkeitszeit.

[4] = tested on: L-5-Hydroxytryptophan; test: Potentiation of L-5-hydroxytryptophan effects (head twitches, tremor); format: in vivo, Maus; conditions: mouse
Procedure: L-5 HTP induziert an der Maus ruckartige Bewegungen des Kopfes (Kopfzuckungen). Die zu untersuchenden Substanzen werden den Tieren (10 Mäuse pro Dosis) intraperitoneal 30 Minuten vor dem L-5 HTP (4 mg/kg intraperitoneal) verabreicht. Die ruckartigen Kopfbewegungen und der Tremor werden 1 Minutre lang alle 10 Minuten im Verlauf einer Stunde bewertet. Desimipramin und Indalpin sind die Kontrol-(Vergleichs-)verbindungen. Ein antidepressiver Effekt zeigt sich durch eine Zunahme der ruckartigen Kopfbewegungen und des Tremors.

[5] = tested on: Motoraktivität; test: Actimetry (motor activity, photocell actimeter); format: in vivo, Maus; conditions: for Motilität: i.p., direction of change; for Motilität / minimal effective dose: Tabelle Ib; for minimal effective dose: ip, read-out: Erste wirksame Dosis Motilität
Source text: Die Motoraktivität wird mittels Photozellenaktimetern bestimmt (Boissier und Simon, Arch. Int. Pharmacodyn. 1965, 158, 212-221).
Die Mäuse (10 oder ein Vielfaches von 10 pro Gruppe) werden unmittelbar nach i.p. Verabreichung der zu untersuchenden Verbindungen in das Aktimeter eingesetzt. Die Motoraktivität wird danach bis zur 60. Minute gemessen. De Zähler werden nach 30 Minuten abgelesen und dann auf 0 zurückgestellt und im Verlauf von 30 Minuten alle 10 Minuten abgelesen.
Die Beweglichkeit der mit den verschiedenen Verbindungen behandelten Tiere wird mit derjenigen einer destilliertes Wasser erhaltenden Kontrollgruppe verglichen.
Die eine psychostimulierende Aktivität besitzenden Produkte verursachen eine Zunahme der Beweglichkeit.

[6] = tested on: durch Oxotremorin induzierten Hypothermie; test: Antioxotremorine activity (oxotremorine-induced hypothermia); format: in vivo, Maus; conditions: ip, read-out: Erste wirksame Dosis Oxotremorin
Procedure: Nach Ausgleich der Rektaltemperaturen erhalten Mäuse (6 pro Gruppe) entweder destillietes Wasser oder die verschiedenen zu untersuchenden Verbindungen i.p.
30 Minuten danach verabreicht man intraperitoneal Oxotremorin in einer Dosis von 0,5 mg/kg.
Die Mäuse werden dan beobachtet: Tremor wird je nach der Intensität von 0 bis 3 bewertet, und die Akinesie wird alle 10 Minuten über einen Zeitraum von 30 Minuten auf Vorliegen oder Fehlen bestimmt.
Außerdem beobachtet man 2 Stunden lang das Erscheinen peripherer Symptome (Tränen, Darmentleerung). Die Rektaltemperatur wird alle 30 Minuten über eine Zeitraum von 2 Stunden nach der Verabreichung des Oxotremorins gemessen.
Die eine antidepressive Aktivität besitzenden Produkte wirken der durch Oxotremorin induzierten Hypothermie entgegen.
Für jede Dosis der Verbindung berechnet man die prozentuale Hemmung der Hypothermie.

[7] = tested on: durch Reserpin induzierten Hypothermie; test: Antireserpine activity (reserpine-induced hypothermia); format: in vivo, Maus; conditions: ip
Procedure: Zur Zeit 0 erhalten die Mäuse intraperitoneal Reserpin (2,5 mg/kg).
4 Stunden danach, wenn die Hypothermie genügend stark erscheint (30 bis 33°C), verabreicht man die verschiedenen zu untersuchenden Verbindungen i.p. oder p.o. Alle 30 Minuten über einen Zeitraum von 2 Stunden mißt man die Rektaltemperatur mit einer auf konstante Tiefe eingeführten, ein Thermoelement tragenden Sonde. Die Rektaltemperatur der mit verschiedenen erfindungsgemäßen Verbindungen behandelten Tiere wird mit der Temperatur einer Kontrollgruppe verglichen, die destilliertes Wasser auf die gleiche Weise wie die untersuchten Verbindungen erhält.
Die Akinesie (fehlende Bewegungen) und Ptose (Öffnungsgrad des Augenlids von 0 bis 4 nach Rubin u.a 1957) werden ebenfalls alle 30 Minuten über einen Zeitraum von 2 Stunden bewertet.
Die eine antidepressive Aktivität besitzenden Produkte wirken der durch Reserpin induzierten Hypothermie entgegen. Für jede Dosis der verabreichten Verbindung berechnet man die prozentuale Hemmung der Hypothermie.

[8] = tested on: Apomorphin 16 mg/kg; test: Antiapomorphine activity (apomorphine 16 mg/kg s.c., hypothermia); format: in vivo, Maus; conditions: ip
Procedure: Zur Zeit 0 nach Ausgleich der Reaktaltemperaturen werden die Mäuse (6 pro Gruppe) in deren Beobachtung gestattende Einzelkäfige (11 x 3,5 x 4 cm) eingeetzt. 30 Minuten nach i.p. bzw. p.o. Verabreichung der Testsubstanz erhalten sie Apomorphin subkutan in einer Dosis von 16 mg/kg. Die Rektaltemperatur wird 30 Minuten nach dem Apomorphin gemessen. Die Kontrolltiere erhalten destilliertes Wasser statt der zu untersuchenden Verbindungen. Die bei diesen Kontrolltieren, die 16 mg/kg Apomorphin erhalten haben, beobachtete Hypothermie liegt im Durchschnitt bei 33°C. Für jede Verbindungsdosis berechnet man die prozentuale Hemmung der Hypothermie.

[9] = tested on: Toxizität des Yohimbins; test: Potentiation of yohimbine toxicity; format: in vivo, Maus; conditions: for minimal effective dose: ip, Tabelle Ib, read-out: Erste wirksame Dosis Yohimbin
Procedure: Wirkung auf die Toxizität des Yohimbins
Zur Zeit 0 erhalten die Mäuse entweder destilliertes Wasser oder verschiedene zu untersuchende Verbindungen i.p. 30 Minuten danach verabreicht man ihnen subkutan eine infratoxische Dosis von 25 mg/kg Yohimbinchlorhydrat.
Die Mortalität wird jede Stunde über einen Zeitraum von 4 Stunden verfolgt und dann nach 24 Stunden notiert.
Die eine antidepressive Aktivität besitzenden Produkte verursachen eine Potenzierung der Toxizität des Yohimbins.

[10] = tested on: Apomorphin 1 mg.kg^-1 s.c.; test: Apomorphine 1 mg/kg s.c. antagonism (no method given); format: in vivo; conditions: ip, Tabelle Ib; read-out: Erste wirksame Dosis Apomorphin 1 mg.kg^-1 s.c.
[11] = mouse, Tabelle 5a, 16 mg/kg, without Naloxon
[12] = mouse, reaction time, 8 mg/kg i.p., plate 56,6°C
[13] = mouse, reaction time, 16 mg/kg i.p., plate 56,6°C, 16 mg/kg
[14] = mouse, reaction time, 32 mg/kg i.p., plate 56,6°C
[15] = 8 mg/kg i.p., 30 min before L-5 HTP 4 mg/kg i.p.
[16] = Tabelle Ib, read-out: Erste wirksame Dosis Reserpin
[17] = Tabelle Ib, read-out: Erste wirksame Dosis Apomorphin 16 mg.kg^-1 s.c.
[18] = Tabelle Ib, read-out: Erste wirksame Dosis T.S.T. Maus
[19] = 4 mg/kg i.p., 30 min before L-5 HTP 4 mg/kg i.p.

Row | Compound | % Antagonismus ([1]; 8 mg/kg i.p.) [%] | Dauer der Unbeweglichkeit ([1]; 8 mg/kg i.p.) | % Antagonismus ([1]; 16 mg/kg i.p.) [%] | Dauer der Unbeweglichkeit ([1]; 16 mg/kg i.p.) | Pfotenlecken [2, 12] | Sprünge [2, 12] [Sekunden] | % Antagonismus ([3]; 1 mg/kg i.p.) [%] | Dauer der Unbeweglichkeit ([3]; 1 mg/kg i.p.) [Sekunden] | % Antagonismus ([3]; 2 mg/kg i.p.) [%] | Dauer der Unbeweglichkeit ([3]; 2 mg/kg i.p.) | % Antagonismus ([3]; 4 mg/kg i.p.) [%] | Dauer der Unbeweglichkeit ([3]; 4 mg/kg i.p.) | % Antagonismus ([3]; 16 mg/kg i.p.) [%] | Dauer der Unbeweglichkeit ([3]; 16 mg/kg i.p.) | minimal effective dose [7, 16] [mg/kg] | minimal effective dose [10] [mg/kg] | minimal effective dose [8, 17] [mg/kg] | minimal effective dose [3, 18] [mg/kg] | Motilität [5] | minimal effective dose [5] [mg/kg] | other results
1 | c1ccc([C@@H]2CCNC[C@H]2c2ccccc2)cc1 (relative stereo) [DPPT, trans-3,4-Diphenylpiperidin] | 28 | 141 ± 16 p < 0,02 Sekunden | 47 | 94 ± 17 p < 0,001 Sekunden | 7,0 ± 0,9 Sekunden | 103 ± 10 | 25 | 58 ± 13 | 51 | 38 ± 7 p < 0,01 Sekunden | 79 | 16 ± 2 p < 0,001 Sekunden | 84 | 12 ± 3 p < 0,001 Sekunden | – | – | – | – | – | – | minimal effective dose at 16 mg/kg ([1]; ip, Porsolt test, effect stronger at 16 mg/kg, read-out: bedeutsame Abnahme in der Dauer der Unbeweglichkeit, Dosis): ≥ 8 mg/kg; minimal effective dose ([2]; Mus musculus, ip, 0.5 h, read-out: Effekt statistisch gesichert bei): 16 mg/kg; Pfotenlecken [2, 11]: 10,0 ± 1,5 p < 00,1 Sekunden and 7,9 ± 0,6 p < 0,02 Sekunden; Sprünge [2, 11]: 141 ± 12 p < 0,01 Sekunden and 125 ± 14 p < 0,01 Sekunden; schadenverhütender Effekt, Wechselwirkung mit Naloxon ([2]; mouse, hot plate): unterliegt Antagonismus durch Naloxon; Pfotenlecken [2, 13]: 8,7 ± 1,2 p < 0,02 Sekunden and 9,9 ± 2,0 Sekunden; Sprünge [2, 13]: 154 ± 11 p < 0,001 Sekunden and 135 ± 14 p < 0,05 Sekunden; Pfotenlecken [2, 14]: 13,0 ± 1,7 p < 0,01 Sekunden; Sprünge [2, 14]: 193 ± 17 p < 0,001 Sekunden; minimal effective dose ([3]; Mus musculus, read-out: bedeutsame Verkürzung der Dauer der Unbeweglichkeit, Dosis): ≥ 2 mg/kg; minimal effective dose ([4]; ip, read-out: Zunahme der durch L-5 HTP induzierten ruckartigen Kopfbewegungen, Effekt gesichert bei): 8 mg/kg; Tremor [4, 15]: 1,3 ± 0,4; ruckartige Kopfbewegungen [4, 15]: 4,7 ± 0,6 p < 0,01; Tremor ([4]; L-5 HTP potentiation): verstärkt; stimulierender Effekt an der Maus ([5]; mouse, 16 mg/kg): keinen stimulierenden Effekt
2 | Clc1ccc([C@@H]2CCNC[C@H]2c2ccccc2)cc1Cl [15 (HCl-Salz)] | – | – | – | – | – | – | – | – | – | – | – | – | – | – | – | – | – | – | – | – | minimal effective dose ([6]; Mus musculus): 0.25 mg/kg; minimal effective dose ([7]; Mus musculus, read-out: Erste wirksame Dosis Reserpin, mouse, i.p., only or lowest value of the cell): 1 mg/kg; minimal effective dose ([8]; Mus musculus, read-out: Erste wirksame Dosis Apomorphin 16 mg/kg, mouse, i.p., only or lowest value of the cell): 1 mg/kg; Aktimetrie ([5]; mouse, direction of change of motor activity): ↗; Erste wirksame Dosis Yohimbin ([9]; mouse, i.p., only or lowest value of the cell): 1 mg/kg
3 | CNCCCN1c2ccccc2CCc2ccccc21 [DESIPRAMIN, reference compound] | 48 | 105 ± 16 p < 0,001 Sekunden | – | – | 8,2 ± 0,5 p < 0,001 Sekunden | 85 ± 7 | – | – | – | – | – | – | – | – | 0.25 | > 16 | 2 | 1 to 4 | ↘ | 4 | Tremor [4, 19]: 0,5 ± 0,2; ruckartige Kopfbewegungen [4, 19]: 3,8 ± 0,4 p < 0,01; minimal effective dose [9]: 0.5 mg/kg
4 | CN(C)CCCN1c2ccccc2CCc2ccccc21 [IMIPRAMIN] | – | – | 37 | 112 ± 23 p < 0,05 Sekunden | – | – | 31 | 70 ± 17 | 42 | 59 ± 8 p < 0,01 Sekunden | 48 | 53 ± 11 p < 0,01 Sekunden | 73 | 28 ± 7 p < 0,001 Sekunden | 2 | 8 | 4 | 1 to 4 | ↘ | 128 | % Antagonismus ([3]; 8 mg/kg i.p.): 58%; Dauer der Unbeweglichkeit ([3]; 8 mg/kg i.p.): 48 ± 10 p < 0,01 Sekunden; minimal effective dose [9]: 16 mg/kg
5 | CN1CCN2c3ccccc3Cc3ccccc3C2C1 (stereo not drawn) [MIANSERIN, reference compound] | – | – | – | – | – | – | – | – | – | – | – | – | – | – | > 32 | 64 | 64 | – | ↘ | 32 | minimal effective dose ([6]; Tabelle Ib): 32 mg/kg
